What was measured:
[1] = Pharmacokinetic test in rats; format: in vivo, SD rats
Method: • 5.1.1 Experimental animals: male SD rats, about 220 g, 6-8 weeks old, 6 rats/compound, purchased from Chengdu Ddossy Experimental Animals Co., Ltd. • 5.1.2 Experimental design: on the day of the test, 6 SD rats were randomly grouped according to their body weight; the animals were fasted with water available for 12 to 14 h one day before the administration, and were fed 4 h after the administration.
Before and after the administration, 0.15 ml of blood was taken from the orbit of the animals under isoflurane anesthesia and placed in an EDTAK2 centrifuge tube. The blood was centrifuged at 5000 rpm and 4° C. for 10 min to collect plasma. The blood collection time points for the intravenous administration group and intragastric administration group were: 0, 5 min, 15 min, 30 min, 1 h, 2 h, 4 h, 6 h, 8 h, and 24 h. Before analysis and detection, all samples were stored at −80° C., and a quantitative analysis of samples was performed using LC-MS/MS.

MDA-MB-231 cells = assay: MDA-MB-231 cell proliferation inhibition test; format: cell-based; conditions: Homo sapiens
Method: Human breast cancer MDA-MB-231 cells purchased from ATCC were placed in complete DMEM medium (supplemented with 10% fetal bovine serum and 1% double antibody) and cultured at 37° C. and 5% CO2. The cells in the exponential growth phase were collected, and the cell suspension was adjusted to 1500 cells/135 μL with the culture medium. 135 μL of the cell suspension was added to each well of a 96-well cell culture plate and incubated overnight. On day 2, compounds at different concentrations were added, and the plate was placed in the incubator and incubated for 7 days. After the incubation was completed, according to operation instructions for a CellTiter-Glo kit (Promega, Cat #G7573), 75 μL of CTG solution, which was already pre-melted and equilibrated to room temperature, was added to each well, and the mixture was uniformly mixed for 2 min using a microplate shaker. The plate was placed at room temperature for 10 min, and then […] signal values were measured using an Envision 2104 plate reader (PerkinElmer). The cell proliferation inhibition rate was calculated according to the formula [(1−(RLUcompound−RLUblank)/(RLUcontrol−RLUblank))×100%]. The IC50 value was obtained by four-parameter nonlinear fitting using GraphPad Prism software.

PARP-1 enzyme = PARP-1 enzyme (Homo sapiens (Human), UniProt P09874); assay: PARP-1 enzyme activity test; format: biochemical
Chain of PARP-1 enzyme (P09874 whole entry): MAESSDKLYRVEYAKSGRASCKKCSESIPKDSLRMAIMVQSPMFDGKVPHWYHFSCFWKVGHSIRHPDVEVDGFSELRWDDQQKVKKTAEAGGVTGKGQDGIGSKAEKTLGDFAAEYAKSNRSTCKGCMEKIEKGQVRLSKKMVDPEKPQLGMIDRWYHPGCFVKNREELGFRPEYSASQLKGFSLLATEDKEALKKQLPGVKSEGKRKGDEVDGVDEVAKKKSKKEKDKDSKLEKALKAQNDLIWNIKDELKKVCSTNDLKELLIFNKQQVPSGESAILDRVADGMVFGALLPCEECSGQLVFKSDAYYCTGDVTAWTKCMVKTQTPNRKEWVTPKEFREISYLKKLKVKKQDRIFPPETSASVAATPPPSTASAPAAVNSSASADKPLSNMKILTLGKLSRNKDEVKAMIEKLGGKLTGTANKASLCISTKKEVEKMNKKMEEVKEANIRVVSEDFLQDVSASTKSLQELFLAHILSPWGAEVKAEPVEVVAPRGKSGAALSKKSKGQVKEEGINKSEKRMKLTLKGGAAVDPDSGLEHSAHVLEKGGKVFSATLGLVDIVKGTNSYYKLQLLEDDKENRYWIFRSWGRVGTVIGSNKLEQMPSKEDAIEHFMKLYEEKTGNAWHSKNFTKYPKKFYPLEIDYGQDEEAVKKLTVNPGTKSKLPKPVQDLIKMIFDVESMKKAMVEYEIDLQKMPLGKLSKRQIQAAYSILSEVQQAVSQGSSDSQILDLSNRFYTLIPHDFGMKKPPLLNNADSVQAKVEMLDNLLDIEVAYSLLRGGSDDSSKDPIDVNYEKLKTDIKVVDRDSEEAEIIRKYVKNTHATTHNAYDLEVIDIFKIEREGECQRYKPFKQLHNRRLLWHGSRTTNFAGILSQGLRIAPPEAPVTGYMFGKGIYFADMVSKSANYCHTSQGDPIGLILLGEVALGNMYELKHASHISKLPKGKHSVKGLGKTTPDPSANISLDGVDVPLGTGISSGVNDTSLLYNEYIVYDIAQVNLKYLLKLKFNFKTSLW
Method: PARP-1 chemical […] detection kit was purchased from BPS Bioscience. The histone solution in the kit was diluted 5× with 1×PBS, and 25 μL of the diluted histone solution was added to a microwell plate and incubated overnight at 4° C. After the incubation, the plate was washed three times with PBST (0.05% Tween-20). 100 μL of the blocking solution was added to the microwell plate and incubated at 25° C. for 90 minutes. After the incubation, the plate was washed three times with PBST. 2.5 μL of compounds at different concentrations diluted in test buffer and 12.5 μL of substrate mixed solution (1.25 μL 10×PARP test buffer; 1.25 μL 10×PARP test mixed solution; 2.5 μL Activated DNA, 7.5 μL double-distilled water) were added to the microwell plate. The PARP-1 enzyme was diluted to 2 ng/μL, 10 μL of the diluent was added to the microwell plate, and the reaction system was incubated at 25° C. for 60 minutes.
(§1) After the incubation, the plate was washed three times with PBST. Streptavidin-HRP was diluted 50× with a blocking solution, and 25 μL of the diluent was added to the microwell plate and incubated at 25° C. for 30 minutes. After the incubation, the plate was washed three times with PBST. ELISA ECL substrate A and substrate B were mixed at a ratio of 1:1 (v/v), 50 μL of the mixture was added to the microwell plate, and the chemiluminescence value was read.
The inhibition rate was calculated according to formula 1, where RLUsample was the readout of the compound well, RLUmax was the readout of the solvent control well, and RLUmin was the readout of the control well without the PARP-1 enzyme. Curve fitting was performed by four parameters (log(inhibitor) vs. response—Variable slope) using GraphPad Prism software, and the IC50 value was calculated.

PARP2 = PARP2 (Homo sapiens (Human), UniProt Q9UGN5); assay: PARP2 enzyme activity test; format: biochemical
Chain of PARP2 (Q9UGN5 whole entry): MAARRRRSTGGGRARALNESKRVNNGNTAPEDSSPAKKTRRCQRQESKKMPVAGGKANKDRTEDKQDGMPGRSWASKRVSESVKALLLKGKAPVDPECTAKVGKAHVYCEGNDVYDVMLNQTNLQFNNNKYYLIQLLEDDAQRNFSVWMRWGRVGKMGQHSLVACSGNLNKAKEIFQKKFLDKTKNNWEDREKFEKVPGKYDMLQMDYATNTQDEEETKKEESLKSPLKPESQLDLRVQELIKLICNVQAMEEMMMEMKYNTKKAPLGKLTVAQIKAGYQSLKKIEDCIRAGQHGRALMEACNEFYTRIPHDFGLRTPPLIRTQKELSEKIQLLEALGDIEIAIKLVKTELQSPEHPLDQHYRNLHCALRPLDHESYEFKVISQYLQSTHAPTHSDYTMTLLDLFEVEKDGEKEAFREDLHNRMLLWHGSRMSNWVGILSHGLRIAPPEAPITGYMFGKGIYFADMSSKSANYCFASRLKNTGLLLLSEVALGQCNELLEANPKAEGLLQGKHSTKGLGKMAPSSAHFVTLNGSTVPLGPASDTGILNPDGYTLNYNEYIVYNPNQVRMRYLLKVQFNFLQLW
Method: PARP2 and PARP7 chemical […] detection kits were both purchased from BPS Bioscience. The histone solution in the kit was diluted 5× with 1×PBS, and 25 μL of the diluted histone solution was added to a microwell plate and incubated overnight at 4° C. After the incubation, the plate was washed three times with PBST (0.05% Tween-20). 100 μL of the blocking solution was added to the microwell plate and incubated at 25° C. for 90 minutes. After the incubation, the plate was washed three times with PBST. 2.5 μL of compound 4 diluted in test buffer and 5 μL of substrate mixed solution were added to the microwell plate. 5 μL of the diluted PARP enzyme was added to the microwell plate, and the reaction system was incubated at 25° C. for 60 minutes.
as §1, with “(v/v), 25” for “(v/v), 50”, “read. […]” for “read.”

[2] = male, Sprague-Dawley, iv, rat plasma, i.v. 2.5 mg/kg

Structure (SMILES): CCc1cc2ncc(CN3CC=C(c4ccc(C(=O)NC)nc4)CC3)cc2[nH]c1=O [Compound 14, 1′-((7-ethyl-6-oxo-5,6-dihydro-1,5-naphthyridin-3-yl)methyl)-N-methyl-1′,2′,3′,6′-tetrahydro-[3,4′-bipyridine]-6-carboxamide]
- AUC(0-t) [1, 2]: 84.2 µg·h/mL
- clearance [1, 2]: 0.494 mL/min/kg
- Vd ([1]; male, Sprague-Dawley, iv, rat plasma, i.v. 2.5 mg/kg, read-out: Vdss): 0.164 L/kg
- AUC(0-t) ([1]; male, Sprague-Dawley, po, rat plasma, i.g. 10 mg/kg): 248 µg·h/mL
- F ([1]; rat, i.g. 10 mg/kg): 73.8%
- IC50 (MDA-MB-231 cells; MDA-MB-231, 168 h, BRCA WT cells, 7 days incubation, CellTiter-Glo, read-out: MDA-MB-231 cell inhibitory activity IC50): 21800 nM
- inhibition at 10 µM (MDA-MB-231 cells; MDA-MB-231 cells, 10 μM, read-out: Max inh. % 10 μM): 59.2%
- IC50 (PARP-1 enzyme): 0.59 nM
- IC50 (PARP2): 31 nM
